In patent US20230080054A1 (ILDONG PHARMACEUTICAL CO., LTD., priority 2021, published 2023):

Experiments:
human ANO6 [1] = target: T1, human ANO6 (Homo sapiens, UniProt Q4KMQ2); assay: YFP quenching assay (ANO6 ion channel activity); assay type: cell-based; details: test compound 1 μM, 10 μM ionomycin, read-out: Inhibition Level 1 μM
T1 construct: expressed in transfected cells
T1 sequence (Q4KMQ2 1-931 isoform Q4KMQ2-2): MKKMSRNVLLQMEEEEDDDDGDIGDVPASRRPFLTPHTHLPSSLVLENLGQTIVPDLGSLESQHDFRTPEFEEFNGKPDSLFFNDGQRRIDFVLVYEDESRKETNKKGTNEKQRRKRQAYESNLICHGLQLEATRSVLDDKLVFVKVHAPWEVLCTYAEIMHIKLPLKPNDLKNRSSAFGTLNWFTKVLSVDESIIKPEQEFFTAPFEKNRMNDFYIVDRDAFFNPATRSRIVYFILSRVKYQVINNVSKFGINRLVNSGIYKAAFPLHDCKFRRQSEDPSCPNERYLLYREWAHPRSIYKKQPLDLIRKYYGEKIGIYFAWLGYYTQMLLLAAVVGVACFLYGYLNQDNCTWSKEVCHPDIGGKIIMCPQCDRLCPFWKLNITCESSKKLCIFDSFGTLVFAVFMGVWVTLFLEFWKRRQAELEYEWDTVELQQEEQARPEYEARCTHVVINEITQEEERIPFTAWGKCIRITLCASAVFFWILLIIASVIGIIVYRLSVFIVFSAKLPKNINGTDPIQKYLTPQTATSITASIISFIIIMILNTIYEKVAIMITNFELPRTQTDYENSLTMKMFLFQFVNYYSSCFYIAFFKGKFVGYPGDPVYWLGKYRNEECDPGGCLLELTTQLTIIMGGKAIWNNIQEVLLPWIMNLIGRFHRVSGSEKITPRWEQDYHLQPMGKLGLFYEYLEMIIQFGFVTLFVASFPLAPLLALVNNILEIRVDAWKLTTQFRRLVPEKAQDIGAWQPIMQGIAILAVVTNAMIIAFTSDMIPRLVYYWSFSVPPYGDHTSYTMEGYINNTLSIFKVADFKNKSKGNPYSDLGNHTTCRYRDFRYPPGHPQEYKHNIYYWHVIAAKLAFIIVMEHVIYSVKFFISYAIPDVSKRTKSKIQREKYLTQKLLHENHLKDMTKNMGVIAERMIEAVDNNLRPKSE
Summary of the method: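 FRT cells stably expressing human ANO6 and YFP-H148Q/I152L/F46L, preincubated 10 min at 40° C with compounds (1% DMSO) in PBS. Quench read every 0.4 s after injecting 140 mM SCN- with 10 μM ionomycin; % inhibition from the 3.6–7.6 s fluorescence difference, normalised to no-ionomycin (100%) and ionomycin-only (0%) wells, duplicate or triplicate.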

human ANO6 [2] = target: T1, human ANO6; assay: LACT C2 assay (phosphatidylserine scramblase function assay); assay type: cell-based; details: FRT cells expressing human ANO6, 10 μM ionomycin; for inhibition at 0.1 µM: test compound 100 nM, read-out: Inhibition Level 100 nM; for inhibition at 1 µM: test compound 1 μM, read-out: Inhibition Level 1 μM
Summary of the method: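 FRT cells stably expressing human ANO6 were pretreated with compound (1% DMSO) for 10 min, then stimulated with 10 μM ionomycin for 10 min. Surface phosphatidylserine was stained with 500 nM Lact-C2-GFP and quantified by imaging. Inhibition was scaled between unstimulated (100%) and ionomycin-only (0%) controls, averaged over triplicates.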

O=C(N[C@@H]1C[C@H]1c1ccccc1)c1cccc(Nc2ccc(-c3ccccc3)nn2)c1 [Compound 68, N-[(1R,2S)-2-phenylcyclopropyl]-3-[(6-phenylpyridazin-3-yl)amino]benzamide]
≥ 60%: inhibition at 1 µM (human ANO6 [1]) | inhibition at 0.1 µM (human ANO6 [2]) | inhibition at 1 µM (human ANO6 [2])

O=C(NCCc1cccc(C(F)(F)F)c1)c1cccc(Nc2ncc(-c3cccc(F)c3)cn2)c1 [Compound 79, 3-{[5-(3-fluorophenyl)pyrimidin-2-yl]amino}-N-{2-[3-(trifluoromethyl)phenyl]ethyl}benzamide]
≥ 60%: inhibition at 1 µM (human ANO6 [1]) | inhibition at 0.1 µM (human ANO6 [2]) | inhibition at 1 µM (human ANO6 [2])

O=C(NCCC1CCCCC1)c1cccc(Nc2ncc(-c3cccc(F)c3)cn2)c1 [Compound 80, N-(2-cyclohexylethyl)-3-{[5-(3-fluorophenyl)pyrimidin-2-yl]amino}benzamide]
≥ 60%: inhibition at 1 µM (human ANO6 [1]) | inhibition at 0.1 µM (human ANO6 [2]) | inhibition at 1 µM (human ANO6 [2])

O=C(Nc1ccc(Cl)c(Cl)c1)c1cccc(Nc2ncc(-c3cccc(F)c3)cn2)c1 [Compound 118, N-(3,4-dichlorophenyl)-3-{[5-(3-fluorophenyl)pyrimidin-2-yl]amino}benzamide]
≥ 60%: inhibition at 1 µM (human ANO6 [1]) | inhibition at 0.1 µM (human ANO6 [2]) | inhibition at 1 µM (human ANO6 [2])

O=C(N[C@@H]1C[C@H]1c1ccccc1)c1cccc(Nc2ncc(-c3cccc(F)c3)cn2)c1 [Compound 119, 3-{[5-(3-fluorophenyl)pyrimidin-2-yl]amino}-N-[(1R,2S)-2-phenylcyclopropyl]benzamide]
≥ 60%: inhibition at 1 µM (human ANO6 [1]) | inhibition at 0.1 µM (human ANO6 [2]) | inhibition at 1 µM (human ANO6 [2])

O=C(Nc1cccc(F)c1)c1cccc(Nc2ccc(-c3cccc(F)c3)cn2)c1 [Compound 122, N-(3-fluorophenyl)-3-{[5-(3-fluorophenyl)pyridin-2-yl]amino}benzamide]
≥ 60%: inhibition at 1 µM (human ANO6 [1]) | inhibition at 0.1 µM (human ANO6 [2]) | inhibition at 1 µM (human ANO6 [2])

O=C(N[C@@H]1C[C@H]1c1ccccc1)c1cccc(Nc2ccc(-c3cccc(F)c3)cn2)c1 [Compound 123, 3-{[5-(3-fluorophenyl)pyridin-2-yl]amino}-N-[(1R,2S)-2-phenylcyclopropyl]benzamide]
≥ 60%: inhibition at 1 µM (human ANO6 [1]) | inhibition at 0.1 µM (human ANO6 [2]) | inhibition at 1 µM (human ANO6 [2])
